Measurements published in patent US6979747B2, “Antioxidants, preparation processes and their uses” (Centre National de la Recherche Scientifique (CNRS), priority 1999, dated 2005).

Key:
HIV provirus = test: Quantification of proviral DNAs by PCR (integration of the provirus within the cell genome); type: cell-based; details: PCR of proviral DNA
Procedure: I-152 is composed of MEA and NAC, which are capable of interacting with the early phases of the biological cycle of HIV. It is therefore capable of decreasing the integration of the provirus into the cell genome. In order to measure these effects, the proviral DNAs were quantified by PCR. The cells were lysed using 1 ml of the following lysis solution: 10 mM Tris HCl pH 8; 100 mM of EDTA pH 8; 0.5% of sodium dodecyl sulfate (SDS); 20 μg/ml of DNAse-free bovine pancreatic RNAse. 200 μg/ml of proteinase K are subsequently added to this suspension. The DNAs were subsequently extracted using 1 ml of an ice-cold saturated phenol solution and 1 ml of a […] solution.
The viral DNAs were then amplified by means of specific primers of the gag gene (SK01/SK39) and of a standard range of the 8E5 line, a chronically infected line, the cells of which carry a proviral copy. The β-globin gene was used as reporter gene in order to make sure of the quality of the DNA extraction.

HIV-1/Ba-L = test: Production of p25 protein in supernatants of MDMs infected with HIV-1/Ba-L (ELISA); type: cell-based; details: infected MDM cultures
Procedure: The assaying of the p25 protein is carried out using the ELISA kit from DuPont de Nemours. 200 μl of the culture supernatant to be tested are placed in a well of a microtitration plate. The addition of 20 μl of lysis buffer releases the viral proteins in the medium. The released antigen attaches to a mouse anti-p25 monoclonal antibody immobilized at the bottom of the wells. After incubating for 2 h at 37° C., 3 washing operations using 5 ml of washing buffer are carried out and then 100 μl of a biotinylated polyclonal antibody which reacts with the immobilized antigen are incubated for 1 h at 37° C. The series of 3 washing operations in the same buffer and with the same volume is again carried out before the addition over 15 min at 37° C. of 100 μl of Raifort-streptavidin peroxidase conjugate which will make it possible to amplify the colorimetric reaction. […] After incubating for 30 min at ambient temperature, the reaction is halted by the addition of 100 μl of 4N sulfuric acid. The OD of the coloring thus obtained is read at […]. This absorbence is directly proportional to the amount of attached antigen. The linear relationship relating the O.D. to the p25 concentration is established by virtue of a standard range produced from a recombinant p25 solution.

HIV-1 LAI = test: Antiviral activity in quiescent or PHA-P activated PBMCs infected with HIV-1 LAI; type: cell-based; details: for decrease of viral replication: PBMCs activated by PHA-P
Procedure: For some experiments, the PBMCs and the PBLs are activated for 48 h with 1 μg/ml of a mitogen, PHA-P (Difco Laboratories). The PBMCs and the PBLs are cultured in medium A (quiescent) or B (activated). The cells are cultured at 37° C. in an atmosphere saturated with moisture under 5% of CO2. The culture supernatants are removed and the culture media are replaced every three or four days. At each renewal of the culture media, the cell viability is evaluated by coloring with trypan blue or by microscopic observation.
The MDMs were infected with the reference isolate with macrophage tropism, HIV-1/Ba-L. The PBMCs and the PBLs were infected with the reference isolate with lymphocyte tropism HIV-1 LAI. The viral stock were formed by amplifying these strains in vitro using umbilical blood mononucleated cells (UBM(s) preactivated with 1 μg/ml of PHA-P and cultured in medium A supplemented by 20 IU/ml of IL-2. In order to remove the soluble factors, such as cytokines, the culture supernatants were ultracentrifuged at 360 000 g for 5 min, and the pellets were resuspended in RPMI 1640. The viral stocks thus formed were subsequently titred using PBMCs activated with PHA-P. The TCID50s (50% Tissue Culture Infectious Dose) were calculated using the Kärber formula.
A million MDMs were infected with 10 000 TCID50s of the HIV-1/Ba-L strain. This amount of virus corresponds to a multiplicity of infection (m.o.i.) equal to 0.01. The excess of virus is removed 24 h after by washing with cells using RPMI 1640. The PBLs and the PBMCs were infected with 10 000 TCID50s of the HIV-1 LAI strain (moi=0.01). The cells were washed at the end of the second day of infection.
The viral replication is measured by assaying the RT activity in the culture supernatants according to the technique described by F. Rey et al. (Biochem. Biophys. Res. Comm., 1984, 121, 126-133). The radioactivity incorporated during the extension of the complementary strand of a poly-rA synthetic matrix in the presence of an oligo-dT12-18 primer and of a radiolabeled substrate, [^3H-methyl]thymidine-5′-triphosphate ([^3H]TPP), makes it possible to assay the enzymatic activity of RT. 400 μl of supernatant are ultracentrifuged at 360 000 g for 5 min. The RT is released by lysis of the viral pellet in 20 μl of NTE-Triton (100 mM NaCl, 10 mM Tris, 1 mM EDTA, 0.1% Triton X-100). These 20 μl are subsequently incubated with 40 μl of the following reaction mixture: 62.5 mM Tris, pH 7.8; 25 mM KCl; 6.25 mM MgCl2; 1.25 mM dithiothreitol (DTT); 2.5×10^−3 ODU oligo-dT12-18 and poly-rA, 5.55×10^−3 TBq {^3H]TTP. After one hour at 37° C., the enzymatic reaction is halted and the newly synthesized strands are precipitated for 20 min at 4° C. by the addition of 1 ml of sodium pyrophosphate (NaPP), of 50 μl of yeast DNA (0.1 mg/ml in 5% trichluoroacetic acid (TCA)), and of 4 ml of 20% TCA. The mixture is filtered using a cellulose acetate membrane (Millipore) which retains the radiolabeled poly-dT chains. The filter is washed using 20 ml of 5% TCA and the residual water is removed by addition of 25 μl of 70% ethanol. The filter is dried in an oven for 10 minutes at 80° C. and is then introduced into vials containing 8 ml of liquid scintillant. The β radioactivity is quantified by means of a scintillation counter (Packard Bell). The results are expressed in pM of [^3H]-TMP incorporated/h/ml of supernatant or, more simply, in cpm/h/ml.
The PBMCs, quiescent or activated by PHA-P, were infected by the reference strain with lymphocyte tropism HIV-1 LAI. All the culturings were carried out in parallel and the drugs were maintained throughout the culturing.

[1] = tested on: total glutathione (GSH+GSSG); test: Total intracellular glutathione in quiescent PBMCs; type: cell-based, human

CC(=O)N[C@@H](CS)C(=O)NCCSC(C)=O [I-152, N-(N-acetyl-L-cysteinyl)-S-acetylcysteamine]
integration of the provirus (in words) (HIV provirus): inhibits the integration of the provirus | production of the p25 protein (in words) (HIV-1/Ba-L): inhibition of the production of the p25 protein | inhibition at 125 µM (HIV-1 LAI; Human immunodeficiency virus 1, PBMC, quiescent PBMCs, 125 μM, read-out: inhibition of viral replication): 88% | inhibition at 250 µM (HIV-1 LAI; Human immunodeficiency virus 1, PBMC, quiescent PBMCs, 250 μM, read-out: inhibition of viral replication): 97% | decrease of viral replication (HIV-1 LAI; 125 μM): 25% | decrease of viral replication (HIV-1 LAI; 250 μM): 42% | times more active than NAC ([1]; from concentrations supplementing the culture medium giving equivalent glutathione): 120 times | intracellular glutathione at high concentration (in words) ([1]; quiescent PBMCs, 250 μM): decrease | effect on intracellular level of glutathione (in words) ([1]; quiescent PBMCs, 24 h treatment): increases the intracellular level of glutathione | intracellular concentration of total glutathione ([1]; quiescent PBMCs, dose 125 μM): 2.64 ± 0.13 µM
